# Assay results published in patent publication US20260276624A1, “PROPHYLACTIC OR THERAPEUTIC AGAINST EXACERBATION OR RECURRENCE OF CANCER, AND SCREENING METHOD THEREFOR” (KEIO UNIVERSITY, priority 2022, published 2026).
# Tests used:
# [1] = tested on: human colorectal cancer organoids; assay: Colony formation of sorted cells after camptothecin treatment of organoids; format: cell-based; conditions: 50 nM; 1,000 sorted cells cultured; day 13 after sorting
# Procedure: The human colorectal cancer organoids were treated with camptothecin (CPT) which is a topoisomerase inhibitor (50 nM). Subsequently, the LGR5-positive p27-positive cells, the LGR5-positive p27-negative cells, LGR5-negative p27-positive cells, and LGR5-negative p27-negative cells were sorted and collected with a cell sorter, and 1,000 cells of each type were cultured.
# The numerical values in FIG. 4 show the number of colonies (average value±standard error). The scale bar is 1 mm.
# [2] = tested on: COL17A1, pFAK; assay: Capillary-based immunoassay for COL17A1, pFAK and total FAK in camptothecin-treated organoids; format: cell-based, human; conditions: camptothecin 50 nM; CCO7 and CCO32 strains
# [3] = tested on: YAP signaling; assay: Nuclear translocation of YAP in camptothecin-treated organoids (confocal); format: cell-based, human; conditions: CCO7 and CCO32 strains, camptothecin treatment
# Excerpt: The scale bar is 100 μm. The right side of FIG. 10 is a graph showing results of measuring the proportion of cells containing YAP that has undergone nuclear translocation based on the photographs on the left side of FIG. 10.
# [4] = tested on: COL17A1 KO human colorectal cancer organoids; assay: Chemotherapy sensitivity of COL17A1 KO organoids; format: cell-based; conditions: compared to COL17A1 WT and hetero KO organoids
# Excerpt: The chemotherapy sensitivity of COL17A1 KO human colorectal cancer organoids was studied.
# [5] = tested on: COL17A1 KO human colorectal cancer organoids; assay: YAP signaling inhibitor on COL17A1 KO organoids, proportion of LGR5-positive p27-positive cells; format: cell-based; conditions: 20 μM, 2 days
# Procedure: A YAP signaling inhibitor was allowed to act on COL17A1 KO organoids to study an effect on dormancy of cancer stem cells. As a YAP signaling inhibitor, MYF-01-37 (CAS No. 2416417-65-5), a low-molecular-weight TEAD inhibitor (TEADi) that disrupts YAP/TAZ-TEAD protein-protein interactions, was used (20 μM, 2 days). […] The scale bar is 100 μm. The right side of FIG. 11 is a graph showing results of measuring the proportion of LGR5-positive p27-positive cells based on the photographs on the left side of FIG. 11.
# [6] = tested on: Human colorectal cancer organoids (CCO32 strain); assay: Experimental Example 14: organoid xenograft, TEAD inhibitor after irinotecan; format: in vivo, NOG mice
# Procedure: The upper row in FIG. 18 is a schematic view showing a schedule of this experiment. Human colorectal cancer organoids (CCO32 strain) were xenotransplanted into the subcutis of immunodeficient NOG mice. Thereafter, irinotecan was administered once a week for three times, followed by administering a TEAD inhibitor over a long period of time to inhibit YAP signaling. Thereafter, administration of the TEAD inhibitor was discontinued. As a TEAD inhibitor, MYF-01-37 (CAS No. 2416417-65-5) was used.
# The lower row in FIG. 18 is a group showing change in tumor size in mice of each group over time. In the lower row in FIG. 18, “Vehicle” indicates a result of a group into which only a solvent was administered, “TEADi” indicates a result of a group into which only a TEAD inhibitor was administered, “IRI” indicates a result of a group into which only irinotecan was administered, and “IRI+TEADi” indicates a result of a group into which irinotecan and a TEAD inhibitor were administered.
# [7] = tested on: human colorectal cancer organoids (CCO32 strain); assay: Camptothecin treatment with or without FAK inhibitor, proportion of LGR5-positive p27-positive cells; format: cell-based; conditions: co-treatment with camptothecin; FAK inhibitor 10 nM, 24 hours / 10 μm as printed; camptothecin 5 days
# Procedure: The scale bar is 100 μm. As a FAK inhibitor, PF573228 (CAS No. 869288-64-2) was used (10 μm). In FIG. 13, “FAKi” indicates a FAK inhibitor. FIG. 14 is a graph showing results of measuring the proportion of the LGR5-positive p27-positive cells when the human colorectal cancer organoids are treated or not treated with camptothecin for 5 days in the presence or absence of a FAK inhibitor. In FIG. 14, “N.S.” indicates no significant difference.
# [8] = tested on: Doxycycline-inducible YAP/TAZ-knockdown human colorectal cancer organoids; assay: Experimental Example 12: doxycycline-inducible YAP/TAZ-knockdown organoid xenograft, irinotecan; format: in vivo, NOG mice; conditions: irinotecan only
# Procedure: The upper row in FIG. 15 is a schematic view showing a schedule of this experiment. Doxycycline-inducible YAP/TAZ-knockdown human colorectal cancer organoids were produced and xenotransplanted into the subcutis of immunodeficient NOG mice. Thereafter, irinotecan was administered. […] The scale bar is 100 μm. In the lower row in FIG. 15, “Control” indicates a result of a group into which neither irinotecan nor doxycycline has been administered, “Dox” indicates a result of a group into which only doxycycline was administered, “Irinotecan” indicates a result of a group into which only irinotecan was administered, and “Irinotecan +Dox” indicates a result of a group into which irinotecan and doxycycline were administered. FIG. 16 is a group showing change in tumor size in mice of each group over time. As a result, in FIG. 16, “Control,” “Dox,” “Irinotecan,” and “Irinotecan +Dox” show the same meaning as in the lower row in FIG. 15. In addition, “*” indicates a significant difference at p<0.05.
# [9] = tested on: Doxycycline-inducible YAP/TAZ-knockdown human colorectal cancer organoids; assay: Experimental Example 13: YAP/TAZ-knockdown organoid xenograft, doxycycline after irinotecan; format: in vivo, NOG mice; conditions: irinotecan once a week for three times, no doxycycline
# Procedure: How the inhibition of YAP signaling affects tumor regrowth after chemotherapy was studied. The upper row in FIG. 17 is a schematic view showing a schedule of this experiment. Doxycycline-inducible YAP/TAZ-knockdown human colorectal cancer organoids were produced and xenotransplanted into the subcutis of immunodeficient NOG mice. Thereafter, irinotecan was administered once a week for three times, followed by administering doxycycline over a long period of time to inhibit YAP signaling. Thereafter, administration of doxycycline was discontinued. The lower row in FIG. 17 is a group showing change in tumor size in mice of each group over time. In the lower row in FIG. 17, “Irinotecan” indicates a result of the group into which only irinotecan was administered, and “Irinotecan +Dox” indicates a result of the group into which irinotecan and doxycycline were administered.
# [10] = tested on: COL17A1 KO human colorectal cancer organoids xenotransplanted in mice; assay: Tumor size after irinotecan in COL17A1 KO xenografts; format: in vivo; conditions: COL17A1 KO vs COL17A1 WT xenografts
# Procedure: Subsequently, irinotecan was administered to mice xenotransplanted with COL17A1 KO human colorectal cancer organoids, and the tumor size was measured over time. The upper row in FIG. 8 is a schematic view showing a schedule of this experiment. The lower row in FIG. 8 is a graph showing change in tumor size over time. […] In addition, indicates a significant difference at p<0.05.
# [11] = tested on: human colorectal cancer organoids xenotransplanted in mice; assay: In vivo imaging of survival of LGR5-positive cells after irinotecan
# Procedure: Whether or not the LGR5-positive p27-positive cells resistant to the chemotherapeutic agent contribute to relapse or recurrence of tumors after chemotherapy was studied in vivo. Specifically, irinotecan was administered to mice xenotransplanted with human colorectal cancer organoids, followed by in vivo imaging and genetic lineage-tracing of the LGR5-positive p27-positive cells and the LGR5-positive p27-negative cells over time.
# FIG. 5 is a graph showing results obtained by measuring the survival rate of LGR5-positive p27-positive cells and LGR5-positive p27-negative cells after administration of irinotecan.
# [12] = irinotecan only, no TEAD inhibitor
structure (smiles),measurement,setting,value
CC[C@@]1(O)C(=O)OCc2c1cc1n(c2=O)Cc2cc3ccccc3nc2-1 [camptothecin],colony formation of LGR5-positive p27-negative cells after camptothecin treatment,[1],showed no colony formation
same,colony formation of LGR5-positive p27-positive cells after camptothecin treatment,[1],showed colony formation
same,expression of COL17A1,[2],expression of COL17A1 was deleted
same,phosphorylation of FAK,[2],phosphorylation of FAK occurred
same,YAP signaling (nuclear translocation of YAP) in LGR5-positive p27-positive cells,[3],activates YAP signaling
same,sensitivity of COL17A1 KO organoids to camptothecin,[4],more sensitive
C=CC(=O)N1CCC(C)(Nc2cccc(C(F)(F)F)c2)C1 (stereo not shown) [MYF-01-37],p27-positive cells in COL17A1 KO organoids,[5],led to reappearance of p27-positive cells
same,tumor size,[6]; TEAD inhibitor after irinotecan (once a week for three times),tumor size was reduced to a minimum
same,tumor inhibition effect,[6]; TEAD inhibitor alone,did not show any tumor inhibition effect
CS(=O)(=O)c1cccc(CNc2nc(Nc3ccc4c(c3)CCC(=O)N4)ncc2C(F)(F)F)c1 [PF573228],cell cycle reentry of LGR5-positive p27-positive cells after camptothecin exposure,[7],inhibited cell cycle reentry
CCc1c2c(nc3ccc(OC(=O)N4CCC(N5CCCCC5)CC4)cc13)-c1cc3c(c(=O)n1C2)COC(=O)[C@]3(O)CC [irinotecan],therapeutic effect (tumor size over time),[8],transient
same,nuclear translocation of YAP in graft,"[8]; three days from administration, immunostaining",resulted in nuclear translocation of YAP in vivo
same,therapeutic effect (tumor size over time),[9],transient therapeutic effect
same,time of cancer regrowth,[9],~40 days
same,tumor regeneration after administration of irinotecan,[10],more inhibited in COL17A1 KO xenografts than in COL17A1 WT xenografts
same,survival of LGR5-positive p27-negative cells after administration of irinotecan,[11],disappeared during an observation period
same,survival of LGR5-positive p27-positive cells after administration of irinotecan,[11],tolerated chemotherapy and remained
same,therapeutic effect (tumor size over time),[6]; [12],transient therapeutic effect
same,time of cancer regrowth,[6]; [12],~40 days
